In PMC2904454 (Cancer Chemotherapy and Pharmacology, 2009):
Like-named read-outs stand apart in the source and are kept apart here.

Assays:
[1] = Plasma pharmacokinetics of sunitinib, SU12662 and total drug; format: in vivo, human; settings: for Mean trough plasma concentration: day 14 of cycle 1, Schedule 2/1
[2] = test system: patients with advanced solid tumors; format: in vivo, human; settings: for MTD of docetaxel in combination with sunitinib: IV q21d; for MTD of sunitinib in combination with docetaxel: with docetaxel q21d
[3] = Plasma pharmacokinetics of docetaxel; format: in vivo, human; settings: for half-life / AUC(0-inf) / Cmax / Tmax: plasma, intravenous; for Tmax: median (range)
breast cancer and NSCLC = settings: cited from earlier work
NSCLC = settings: ESCAPE, with carboplatin and paclitaxel in NSCLC; cited from earlier work
[4] = test system: patients with advanced solid tumors; assay: Safety: adverse events graded by NCI CTCAE v3.0, ECG/MUGA, patient disposition; format: in vivo, human; settings: with docetaxel
[5] = Schedule 2/1 dose level 3b (MTD), n = 10
[6] = Schedule 2/1 dose level 3b (MTD), n = 10, docetaxel + sunitinib (day 1 of cycle 2)
[7] = Schedule 2/1 dose level 3b (MTD), n = 10, sunitinib alone (day 3 of cycle 1)
[8] = Schedule 4/2 dose level 0, n = 3
[9] = Schedule 4/2 dose level 0, n = 3, docetaxel + sunitinib (day 22)
[10] = Schedule 4/2 dose level 0, n = 3, sunitinib alone (day 18)
[11] = Schedule 4/2 dose level 1, n = 5
[12] = Schedule 4/2 dose level 1, n = 5, docetaxel + sunitinib (day 22)
[13] = Schedule 4/2 dose level 1, n = 5, sunitinib alone (day 18)
[14] = Schedule 2/1 dose level 3b, n = 8
[15] = Schedule 2/1 MTD only, dose level 3b (n = 23)
[16] = Schedule 2/1 dose levels 0–3b, all patients (N = 40)
[17] = Schedule 4/2 dose levels 0–1 (N = 10)

CCNCCNC(=O)c1c(C)[nH]c(/C=C2\C(=O)Nc3ccc(F)cc32)c1C [SU12662]
AUC0–24 geometric mean ratio (combination/drug alone) [1, 5]: 0.99
C max geometric mean ratio (combination/drug alone) [1, 5]: 1.16
AUC0–24, mean (SD) [1, 6]: 62.7 (32.4) ng*h/mL
C max, mean (SD) [1, 6]: 4.1 (1.9) ng/mL
T max, median (range) [1, 6]: 7.0 (2.0, 24.0) h
C max, mean (SD) [1, 7]: 3.4 (1.3) ng/mL
T max, median (range) [1, 7]: 5.0 (4.0, 24.0) h
AUC0–24, mean (SD) ([1]; Schedule 2/1 dose level 3b (MTD: sunitinib 37.5 mg + docetaxel 75 mg/m^2 q21d), n = 10, sunitinib alone (day 3 of cycle 1)): 58.0 (22.3) ng*h/mL
AUC0–24, mean (SD) ([1]; Schedule 4/2 dose level 0 (sunitinib 25 mg, docetaxel 60 mg/m^2), n = 3, sunitinib alone (day 18)): 294.0 (195.0) ng*h/mL
AUC0–24 geometric mean ratio (combination/drug alone) [1, 8]: 1.10
C max geometric mean ratio (combination/drug alone) [1, 8]: 1.14
AUC0–24, mean (SD) [1, 9]: 299.9 (132.7) ng*h/mL
C max, mean (SD) [1, 9]: 14.4 (7.2) ng/mL
T max, median (range) [1, 9]: 4.0 (2.0, 4.0) h
C max, mean (SD) [1, 10]: 13.3 (8.3) ng/mL
T max, median (range) [1, 10]: 4.0 (4.0, 12.0) h
AUC0–24, mean (SD) ([1]; Schedule 4/2 dose level 1 (sunitinib 37.5 mg, docetaxel 60 mg/m^2), n = 5, sunitinib alone (day 18)): 341.9 (110.9) ng*h/mL
AUC0–24 geometric mean ratio (combination/drug alone) [1, 11]: 1.06
C max geometric mean ratio (combination/drug alone) [1, 11]: 1.05
AUC0–24, mean (SD) [1, 12]: 366.8 (137.5) ng*h/mL
C max, mean (SD) [1, 12]: 17.7 (7.2) ng/mL
T max, median (range) [1, 12]: 4.0 (1.0, 12.0) h
C max, mean (SD) [1, 13]: 16.3 (4.6) ng/mL
T max, median (range) [1, 13]: 6.0 (2.0, 12.0) h
Mean trough plasma concentration [1]: 16.4 ng/mL

CC(=O)O[C@@]12CO[C@@H]1C[C@H](O)[C@@]1(C)C(=O)[C@H](O)C3=C(C)[C@@H](OC(=O)[C@H](O)[C@@H](NC(=O)OC(C)(C)C)c4ccccc4)C[C@@](O)([C@@H](OC(=O)c4ccccc4)[C@H]21)C3(C)C [docetaxel, Docetaxel]
MTD of docetaxel in combination with sunitinib ([2]; with sunitinib on Schedule 2/1): 75 mg/m^2
MTD of docetaxel in combination with sunitinib ([2]; with sunitinib on Schedule 4/2): 60 mg/m^2
AUCinf geometric mean ratio (combination/drug alone) [3, 14]: 1.12
AUClast geometric mean ratio (combination/drug alone) [3, 14]: 1.16
C max geometric mean ratio (combination/drug alone) [3, 14]: 1.24
AUCinf geometric mean ratio (combination/drug alone) [3, 11]: 1.43
AUClast geometric mean ratio (combination/drug alone) [3, 11]: 1.47
C max geometric mean ratio (combination/drug alone) [3, 11]: 1.46
AUClast, mean (SD) ([3]; human, in vivo): 2,712.5 (731.9) ng*h/mL
AUC(0-t) ([3]; human, in vivo, AUClast, mean (SD)): 2290 ng·h/mL
half-life ([3]; human, 60 mg/m^2): 19.6 h
AUC(0-inf) ([3]; human, 60 mg/m^2, AUCinf, mean (SD), Schedule 4/2 dose level 1, n = 5, drug alone (day 1 of cycle 1)): 2550 ng·h/mL
half-life ([3]; human, 75 mg/m^2): 15.7 h
AUC(0-inf) ([3]; human, 75 mg/m^2, AUCinf, mean (SD), Schedule 2/1 dose level 3b, n = 8, drug alone (day 1 of cycle 1)): 2960 ng·h/mL
Cmax ([3]; human, 75 mg/m^2, C max, mean (SD), Schedule 2/1 dose level 3b, n = 8, drug alone (day 1 of cycle 1)): 2580 ng/mL
Tmax ([3]; human, 75 mg/m^2, T max, Schedule 2/1 dose level 3b, n = 8, drug alone (day 1 of cycle 1)): 0.6 h
AUC(0-inf) ([3]; human, AUCinf, mean (SD), Schedule 4/2 dose level 1, n = 5, docetaxel + sunitinib (day 22 of cycle 1)): 3690 ng·h/mL
Cmax ([3]; human, C max, mean (SD), Schedule 2/1 dose level 3b, n = 8, docetaxel + sunitinib (day 1 of cycle 2)): 3180 ng/mL
Cmax ([3]; human, C max, mean (SD), Schedule 4/2 dose level 1, n = 5, docetaxel + sunitinib (day 22 of cycle 1)): 3100 ng/mL
Tmax ([3]; human, T max, Schedule 2/1 dose level 3b, n = 8, docetaxel + sunitinib (day 1 of cycle 2)): 0.8 h
Grade 3/4 neutropenia, patients (breast cancer and NSCLC; docetaxel monotherapy, phase III trials of breast cancer and NSCLC): 54–84%
Use of granulocytic growth factor support (breast cancer and NSCLC; single-agent docetaxel): 17.9%

CNC(=O)c1cc(Oc2ccc(NC(=O)Nc3ccc(Cl)c(C(F)(F)F)c3)cc2)ccn1 [sorafenib]
Febrile neutropenia rate (NSCLC): 5%
Grade 3/4 thrombocytopenia rate (NSCLC): 14%

CCN(CC)CCNC(=O)c1c(C)[nH]c(/C=C2\C(=O)Nc3ccc(F)cc32)c1C [sunitinib, Sunitinib malate]
MTD of sunitinib in combination with docetaxel ([2]; Schedule 2/1, oral): 37.5 mg/day
MTD of sunitinib in combination with docetaxel ([2]; Schedule 4/2, oral): 25 mg/day
Mean trough plasma concentration [1]: 43.8 ng/mL
AUC(0-t) ([1]; human, in vivo): 297 ng·h/mL
AUC(0-t) ([1]; human, in vivo, AUC0–24, mean (SD)): 1170 ng·h/mL
AUC(0-t) ([1]; human, plasma, oral, 25 mg, AUC0–24, mean (SD), Schedule 4/2 dose level 0 (sunitinib 25 mg, docetaxel 60 mg/m^2), n = 3, sunitinib alone (day 18)): 721 ng·h/mL
Tmax ([1]; human, plasma, oral, 37.5 mg): 8 h
AUC(0-t) ([1]; human, plasma, oral, AUC0–24, mean (SD), Schedule 4/2 dose level 0, n = 3, docetaxel + sunitinib (day 22)): 548 ng·h/mL
AUC(0-t) ([1]; human, plasma, oral, AUC0–24, mean (SD), Schedule 4/2 dose level 1, n = 5, docetaxel + sunitinib (day 22)): 1020 ng·h/mL
Dose reduction for sunitinib [4, 15]: 4 (17) n (%)
Treatment interruption for sunitinib, adverse event [4, 15]: 9 (39) n (%)
Dose reduction for sunitinib [4, 16]: 5 (13) n (%)
Treatment interruption for sunitinib, adverse event [4, 16]: 11 (28) n (%)
Dose reduction for sunitinib [4, 17]: 1 (10) n (%)
Treatment interruption for sunitinib, adverse event [4, 17]: 3 (30) n (%)
